Results on 40 compounds are retold here after publication PMC9979163, “Discovery and functional characterization of N-(thiazol-2-yl)-benzamide analogs as the first class of selective antagonists of the Zinc-Activated Channel (ZAC)” (Biochemical pharmacology, 2021).

Read-outs that look alike come from different tables or passages of the source.

For the experiment, the target named is T1, ZAC (Homo sapiens, UniProt Q401N2).
T1 sequence (Q401N2 26-412): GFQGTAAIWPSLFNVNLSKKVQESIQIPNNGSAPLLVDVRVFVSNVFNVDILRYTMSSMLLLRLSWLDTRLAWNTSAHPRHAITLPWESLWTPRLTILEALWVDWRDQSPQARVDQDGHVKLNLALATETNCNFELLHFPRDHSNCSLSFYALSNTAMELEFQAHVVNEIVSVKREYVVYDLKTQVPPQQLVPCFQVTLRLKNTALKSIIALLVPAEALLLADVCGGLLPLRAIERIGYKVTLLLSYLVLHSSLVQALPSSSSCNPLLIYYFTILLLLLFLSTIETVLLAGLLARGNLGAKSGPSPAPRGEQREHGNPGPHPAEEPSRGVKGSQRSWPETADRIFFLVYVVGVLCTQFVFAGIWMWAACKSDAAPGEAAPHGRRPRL
The experiment can be described thus: TEVC recordings, Zn2+-evoked currents at ZAC expressed in Xenopus oocytes. It counts as cell-based. The following applies: for Antagonist activity at ZAC in SAR study (in words): 1 mM Zn2+ as agonist, tested at three concentrations (0.3-3-30 μM or 1-10-100 μM); for Fitted inhibition range, Inhibition (%) / Hill coefficient nH ± S.E.M. / IC50: Zn2+ (1 mM) as agonist, TEVC; for IC50: steady-state current; for Extent of inhibition of Zn2+-induced responses (in words): Zn2+ (1 mM), full concentration-inhibition curves. How it is done: The cDNAs for the various WT and chimeric CLR subunits were linearized and subsequently transcribed and capped mMessage mMachine T7 RNA transcription kit (Ambion, Waltham, MA). Different amounts of cRNA mixtures were injected for ZAC (9.2–36.8 nL in a concentration of 0.05 μg/μL), […] nAChR (9.2–36.8 nL in a concentration of 0.1 μg/μL of each subunit in a ratio of 1:1), hα1 GlyR (9.2–36.8 nL in a concentration of 0.05 μg/μL), hα1β2γ2s GABAAR (9.2–36.8 nL in a concentration of 0.05 μg/μL of each subunit in a ratio of 1:1:3), m5-HT3AR (9.2–36.8 nL in a concentration of 0.05 μg/μL), m5-HT3A/ZAC (9.2–36.8 nL in a concentration of 0.207 μg/μL), and ZAC/hai-Gly (9.2–36.8 nL in a concentration of 0.206 μg/μL). Oocytes were incubated in a sterile modified Barth’s solution [88 mM NaCl, 1 mM KCl, 15 mM HEPES (pH 7.5), 2.4 mM NaHCO3, 0.41 mM CaCl2, 0.82 mM MgSO4, 0.3 mM Ca(NO3)2, 100 U/ml penicillin and 100 μg/ml strep-tomycin] at 18 °C for 2 days after injection.
On the day of experiment, all compound dilutions were prepared in a saline solution [115 mM NaCl, 2.5 mM KCl, 10 mM MOPS (pH 7.5), 1.8 mM CaCl2, 0.1 mM MgCl2] and pH adjusted to 7.5 (if needed). Oocytes were placed in a recording chamber continuously perfused with this saline solution, and the compounds were applied in the perfusate. Both voltage and current electrodes were agar-plugged with 3 M KCl with a resistance of 0.2–2.0 MΩ. Oocytes were voltage-clamped at −50 mV (unless otherwise stated) by a Gene Clamp 500B amplifier (Axon Instruments, Union City, CA), while current signals were digitized by a Digidata 1320. Currents were recorded using pCLAMP 10 (Molecular Devices, Sunnyvale, CA). The recordings were performed at room temperature.
In all recordings, the compounds or compound combinations were applied in the bath until the peak current decayed to a steady state (up to 30 sec at the most). […] The functional properties of the modulators at the CLRs were determined by pre-application of the modulator to the perfusate 30 sec and followed by co-application of the modulator and the agonist to the perfusate. In all recordings, washes of 1–5 min were executed between the applications to prevent receptor desensitization, the duration of these washes depending on the kinetics of the respective receptors and the “stickyness” of the respective compounds. […] For the selectivity and mode-of-action studies, the agonist concentrations used for different CLRs or chimeric CLRs were in the EC20–EC40 range (verified on the day of experiment), as this enabled us to investigate both for putative positive and negative receptor modulation exerted by TTFB (hα3β4 nAChR, 3 μM (S)-nicotine; m5-HT3AR, 2 μM 5-HT; hα1 GlyR, 100 μM glycine; hα1β2γ2S GABAAR, 30 μM GABA; m5-HT3A/ZAC, 0.3 μM 5-HT; ZAC/hɑ1-Gly, 2 μM Zn^2+).
Data analysis of the results from the TEVC recordings were performed using Clampfit software version 10.5 (Molecular Devices, Crawley, UK) and GraphPad Prism version 7.0c (GraphPad Software, Inc. La Jolla, CA). Data for the test compounds were normalized to either the maximal agonist-evoked current or to an EC20–EC50-mediated response elicited by the agonist on each oocyte (specified in each case). Unless otherwise stated, data for agonist-induced responses in the presence of the antagonists were extracted from the plateau (or steady-state) of the agonist-evoked current. Concentration-response and concentration-inhibition curves were fitted in GraphPad Prism by nonlinear regression using the equation for sigmoidal dose-response with variable slope. I-V relationships were analyzed by fitting the curves with a third order polynomial model. Each data point represents the mean ± S.E.M. value of recordings performed on at least five oocytes from at least two different batches.

Setting [1] is: read-out: pIC50 ± S.E.M. (converted).

As for `Cc1cnc(NC(=O)c2cc(Br)ccc2Cl)s1` [2a], the “Antagonist activity at ZAC in SAR study (in words)” value (shortened to “Antagonist activity at ZAC”) is reported as “inactivity”.
As for `CC(C)(C)c1csc(NC(=O)c2cc(Br)ccc2Cl)n1` [2b], the “Antagonist activity at ZAC” value is “slightly more potent and efficacious ZAC inhibition than 1”; the “Fitted inhibition range, Inhibition (%)” value was found to be 88 ± 3%; the “Hill coefficient nH ± S.E.M.” value is −1.2 ± 0.12; the “Extent of inhibition of Zn2+-induced responses (in words)” value is “completely”. The IC50 under setting [1] was 1320 nM.
In the case of `CCOC(=O)Cc1csc(NC(=O)c2cc(Br)ccc2Cl)n1` [2c], the “Antagonist activity at ZAC” value was “slightly more potent and efficacious ZAC inhibition than 1”.
Regarding `Cc1ccc(-c2csc(NC(=O)c3cc(Br)ccc3Cl)n2)cc1` [2d], the “Antagonist activity at ZAC” value was “reduced substantially”.
Still for that read-out and setting: then `O=C(Nc1nc2ccccc2s1)c1cc(Br)ccc1Cl` [2e], with “substantial loss of activity”.
As for `O=C(Nc1nnc(C2CCCCC2)s1)c1cc(Br)ccc1Cl` [2f], the “Antagonist activity at ZAC” value is “substantial loss of activity”.
Same read-out and setting: then `CCc1nc(NC(=O)c2cccc(Br)c2)sc1C(=O)OC` [3a], with “inactive”; and `CCOC(=O)c1sc(NC(=O)c2cccc(Br)c2)nc1C` [3b], with “inactive”; and `Cc1csc(NC(=O)c2cccc(Br)c2)n1` [3c], with “weak ZAC activity”.
On the same count and under the same terms, for `CC(C)(C)c1csc(NC(=O)c2cccc(Br)c2)n1` [3d] the value was “fairly potent”; for `O=C(Nc1nc(-c2ccc(Br)s2)cs1)c1cccc(Br)c1` [3e], “eliminated ZAC activity completely”.
For `O=C(Nc1ncc([N+](=O)[O-])s1)c1cccc(Br)c1` [3f], the “Antagonist activity at ZAC” value is recorded as “weaker antagonists”. Also, the IC50 (read-out: IC50) is around 20000 nM.
With `Cc1nc(NC(=O)c2cccc(Br)c2)sc1C` [3g], the “Antagonist activity at ZAC” value is “considerably weaker antagonist”.
Same read-out and setting: then `CC(C)(C)c1nnc(NC(=O)c2cccc(Br)c2)s1` [3k], with “essentially eliminated ZAC activity”; and `COC(=O)c1sc(NC(=O)c2ccccc2C)nc1C` [4a], with “essentially inactive”.
On the same count and under the same terms, for `COC(=O)c1sc(NC(=O)c2ccc(C)cc2)nc1C` [4b] the value was “essentially inactive”.
On to `COC(=O)c1sc(NC(=O)c2cccc(I)c2)nc1C` [4c], for which the “Antagonist activity at ZAC” value is given as “did not alter its antagonist activity substantially”; the “Fitted inhibition range, Inhibition (%)” value is reported as 78 ± 3%; the “Hill coefficient nH ± S.E.M.” value was −0.89 ± 0.06; the “Extent of inhibition of Zn2+-induced responses (in words)” value is reported as “completely”. Under setting [1], the IC50 is 1020 nM.
With `COC(=O)c1sc(NC(=O)c2cc(C)cc(C)c2)nc1C` [4d], the “Antagonist activity at ZAC” value is given as “did not alter its antagonist activity substantially”.
The same measure, in the same setting: then `COC(=O)c1sc(NC(=O)c2cc([N+](=O)[O-])cc([N+](=O)[O-])c2)nc1C` [4e], with “completely devoid of antagonist activity”; and `COC(=O)c1sc(NC(=O)c2cc([N+](=O)[O-])ccc2Cl)nc1C` [4f], with “inactive”; and `CCOc1ccc(C(=O)Nc2nc(C)c(C(=O)OC)s2)cc1Br` [4g], with “inactive”.
The same measure, in the same setting: then `COC(=O)c1sc(NC(=O)c2ccncc2)nc1C` [4h], with “inactive”.
On the same count and under the same terms, for `CCOC(=O)c1sc(NC(=O)c2ccccc2Cl)nc1C` [4i] the value was “inactive”; for `CCOC(=O)c1sc(NC(=O)c2cc(Cl)cc(Cl)c2)nc1C` [4j], “inactive”.
On to `CCOC(=O)c1sc(NC(=O)c2cc(Cl)ccc2OC)nc1C` [4k], for which the “Antagonist activity at ZAC” value is “inactive”.
Still for that read-out and setting: then `CCOC(=O)c1sc(NC(=O)c2cc(OC)c(OC)c(OC)c2)nc1C` [4l], with “essentially inactive”; and `C=CCN(CC=C)S(=O)(=O)c1ccc(C(=O)Nc2nc(C)c(C(=O)OCC)s2)cc1` [4m], with “inactive”; and `CCOC(=O)c1sc(NC(=O)c2cccnc2)nc1C` [4n], with “inactive”.
The same measure, in the same setting: then `CCOC(=O)c1sc(NC(=O)c2ccco2)nc1C` [4o], with “inactive”; and `CC(C)(C)c1csc(NC(=O)c2c(F)c(F)c(F)c(F)c2F)n1` [5b], with “considerably weaker ZAC antagonist”; and `CN(C)c1cccc(C(=O)Nc2nc(C(C)(C)C)cs2)c1` [5f], with “roughly equipotent with 2b”.
Same read-out and setting: then `COc1ccc(Cl)cc1C(=O)Nc1nc(C(C)(C)C)cs1` [5g], with “somewhat potent but apparent partial inhibition”.
For the compound `CC(C)(C)c1csc(NC(=O)c2cc(F)c(F)cc2Cl)n1` [5h], the “Antagonist activity at ZAC” value was “lower potency as ZAC antagonist than 2b”.
On the same count and under the same terms, then `COc1cc(C(=O)Nc2nc(C(C)(C)C)cs2)cc(OC)c1OC` [5i], with “essentially inactive”; and `O=C(Nc1nccs1)c1cc(F)c(F)cc1Cl` [6a], with “inactivity”.
The same measure, in the same setting: then `Cc1cnc(NC(=O)c2cc(F)c(F)cc2Cl)s1` [6b], with “inactivity”; and `CC(=O)c1sc(NC(=O)c2cc(F)c(F)cc2Cl)nc1C` [6c], with “inactivity”; and `CCOC(=O)Cc1csc(NC(=O)c2cc(Cl)cc(Cl)c2)n1` [6g], with “inactivity”.
Take `CN(C)c1cccc(C(=O)Nc2nc(C3CC3)cs2)c1` [6l]: the “Antagonist activity at ZAC” value is “decreased antagonist potency”.
With `CC(C)c1csc(NC(=O)c2cccc(Nc3ncccn3)c2)n1` [6m], the “Antagonist activity at ZAC” value is recorded as “further reduced ZAC activity”.
